Laboratory results from the NIST ThermoML archive (doi:10.1021/je2003012).
Values joined by “and” are separate entries in the source; they are usually repeats but may differ in a detail not shown here. Identical values can stand only once.

Assay: relative permittivity at various frequencies (dimensionless); wn = mass fraction of the nth substance listed
Conditions: Liquid, direct capacitance:P =

O=C=O [carbon dioxide] + CCO
Conditions	relative permittivity
322.4 K, 11900 kPa, w2 = 0.1	1.94
322.4 K, 12200 kPa, w2 = 0.1	1.96
322.4 K, 13700 kPa, w2 = 0.1	2.01
322.4 K, 13900 kPa, w2 = 0.1	2.02
322.4 K, 15700 kPa, w2 = 0.1	2.06
322.4 K, 15800 kPa, w2 = 0.1	2.07
322.4 K, 16700 kPa, w2 = 0.1	2.09
322.4 K, 17100 kPa, w2 = 0.1	2.09
322.4 K, 17600 kPa, w2 = 0.1	2.11
322.4 K, 18600 kPa, w2 = 0.1	2.13
322.4 K, 19600 kPa, w2 = 0.1	2.14
322.4 K, 20600 kPa, w2 = 0.1	2.16
322.4 K, 21600 kPa, w2 = 0.1	2.18
322.4 K, 21700 kPa, w2 = 0.1	2.18
322.4 K, 22600 kPa, w2 = 0.1	2.19
322.4 K, 23600 kPa, w2 = 0.1	2.21
322.4 K, 24500 kPa, w2 = 0.1	2.22
322.4 K, 25500 kPa, w2 = 0.1	2.23
322.4 K, 26500 kPa, w2 = 0.1	2.24
322.4 K, 27500 kPa, w2 = 0.1	2.26
322.4 K, 28400 kPa, w2 = 0.1	2.27
322.4 K, 29900 kPa, w2 = 0.1	2.28
322.5 K, 10200 kPa, w2 = 0.05	1.53
322.5 K, 12100 kPa, w2 = 0.05	1.63
322.5 K, 13100 kPa, w2 = 0.05	1.66
322.5 K, 14200 kPa, w2 = 0.05	1.7
322.5 K, 14700 kPa, w2 = 0.05	1.7
322.5 K, 16000 kPa, w2 = 0.05	1.73
322.5 K, 16100 kPa, w2 = 0.05	1.73
322.5 K, 17200 kPa, w2 = 0.05	1.75
322.5 K, 18900 kPa, w2 = 0.05	1.78
322.5 K, 19500 kPa, w2 = 0.05	1.79
322.5 K, 20800 kPa, w2 = 0.05	1.8
322.5 K, 21800 kPa, w2 = 0.05	1.81
322.5 K, 22700 kPa, w2 = 0.05	1.82
322.5 K, 23600 kPa, w2 = 0.05	1.83
322.5 K, 24700 kPa, w2 = 0.05	1.84
322.5 K, 25800 kPa, w2 = 0.05	1.85
322.5 K, 26300 kPa, w2 = 0.05	1.86
322.5 K, 27900 kPa, w2 = 0.05	1.87
322.5 K, 28400 kPa, w2 = 0.05	1.87
322.5 K, 29300 kPa, w2 = 0.05	1.88
322.5 K, 29500 kPa, w2 = 0.05	1.88
322.5 K, 30300 kPa, w2 = 0.05	1.89
323.3 K, 9900 kPa, w2 = 0.152	2.06
323.3 K, 11000 kPa, w2 = 0.152	2.13
323.3 K, 12000 kPa, w2 = 0.152	2.18
323.3 K, 12700 kPa, w2 = 0.152	2.21
323.3 K, 13600 kPa, w2 = 0.152	2.25
323.3 K, 14700 kPa, w2 = 0.152	2.28
323.3 K, 15900 kPa, w2 = 0.152	2.31
323.3 K, 16900 kPa, w2 = 0.152	2.34
323.3 K, 17800 kPa, w2 = 0.152	2.36
323.3 K, 18600 kPa, w2 = 0.152	2.37
323.3 K, 18700 kPa, w2 = 0.152	2.38
323.3 K, 19500 kPa, w2 = 0.152	2.4
323.3 K, 20300 kPa, w2 = 0.152	2.41
323.3 K, 21700 kPa, w2 = 0.152	2.44
323.3 K, 22800 kPa, w2 = 0.152	2.45
323.3 K, 23100 kPa, w2 = 0.152	2.46
323.3 K, 23500 kPa, w2 = 0.152	2.47
323.3 K, 24500 kPa, w2 = 0.152	2.48
323.3 K, 25400 kPa, w2 = 0.152	2.5
323.3 K, 26500 kPa, w2 = 0.152	2.51
323.3 K, 28400 kPa, w2 = 0.152	2.54
323.3 K, 29500 kPa, w2 = 0.152	2.56
323.4 K, 9800 kPa, w2 = 0.212	2.59
323.4 K, 10600 kPa, w2 = 0.212	2.61
323.4 K, 11500 kPa, w2 = 0.212	2.67
323.4 K, 12400 kPa, w2 = 0.212	2.71
323.4 K, 13100 kPa, w2 = 0.212	2.75
323.4 K, 14100 kPa, w2 = 0.212	2.79
323.4 K, 15800 kPa, w2 = 0.212	2.85
323.4 K, 16600 kPa, w2 = 0.212	2.87
323.4 K, 17800 kPa, w2 = 0.212	2.9
323.4 K, 18800 kPa, w2 = 0.212	2.93
323.4 K, 19600 kPa, w2 = 0.212	2.95
323.4 K, 19700 kPa, w2 = 0.212	2.95
323.4 K, 21100 kPa, w2 = 0.212	2.98
323.4 K, 22900 kPa, w2 = 0.212	3.03
323.4 K, 23100 kPa, w2 = 0.212	3.03
323.4 K, 23200 kPa, w2 = 0.212	3.03
323.4 K, 24700 kPa, w2 = 0.212	3.06
323.4 K, 26000 kPa, w2 = 0.212	3.08
323.4 K, 26700 kPa, w2 = 0.212	3.1
323.4 K, 27900 kPa, w2 = 0.212	3.12
323.4 K, 29500 kPa, w2 = 0.212	3.14
323.4 K, 30600 kPa, w2 = 0.212	3.15
333.2 K, 10500 kPa, w2 = 0.05	1.32
333.2 K, 11200 kPa, w2 = 0.05	1.41
333.2 K, 11900 kPa, w2 = 0.212	2.38
333.2 K, 12100 kPa, w2 = 0.05	1.48
333.2 K, 12900 kPa, w2 = 0.212	2.45
333.2 K, 13000 kPa, w2 = 0.05	1.54 and 1.53
333.2 K, 13200 kPa, w2 = 0.212	2.47
333.2 K, 13700 kPa, w2 = 0.05	1.57
333.2 K, 14100 kPa, w2 = 0.212	2.52
333.2 K, 14700 kPa, w2 = 0.212	2.54
333.2 K, 14900 kPa, w2 = 0.05	1.62
333.2 K, 15800 kPa, w2 = 0.212	2.59
333.2 K, 15900 kPa, w2 = 0.05	1.64
333.2 K, 16200 kPa, w2 = 0.212	2.61
333.2 K, 16900 kPa, w2 = 0.212	2.62
333.2 K, 17000 kPa, w2 = 0.05	1.67
333.2 K, 17300 kPa, w2 = 0.212	2.64
333.2 K, 17600 kPa, w2 = 0.05	1.69
333.2 K, 18500 kPa, w2 = 0.212	2.68
333.2 K, 19100 kPa, w2 = 0.05	1.72
333.2 K, 19100 kPa, w2 = 0.212	2.7
333.2 K, 19200 kPa, w2 = 0.212	2.7
333.2 K, 19400 kPa, w2 = 0.05	1.72
333.2 K, 21000 kPa, w2 = 0.05	1.75
333.2 K, 21200 kPa, w2 = 0.212	2.75
333.2 K, 21300 kPa, w2 = 0.212	2.75
333.2 K, 21600 kPa, w2 = 0.05	1.75
333.2 K, 22900 kPa, w2 = 0.05	1.77
333.2 K, 23000 kPa, w2 = 0.212	2.79
333.2 K, 23100 kPa, w2 = 0.212	2.79
333.2 K, 23700 kPa, w2 = 0.05	1.78
333.2 K, 24900 kPa, w2 = 0.212	2.83
333.2 K, 25000 kPa, w2 = 0.05	1.8
333.2 K, 25000 kPa, w2 = 0.212	2.83
333.2 K, 25200 kPa, w2 = 0.212	2.83
333.2 K, 25500 kPa, w2 = 0.212	2.85
333.2 K, 26800 kPa, w2 = 0.212	2.86
333.2 K, 26900 kPa, w2 = 0.05	1.82
333.2 K, 27000 kPa, w2 = 0.212	2.87
333.2 K, 27400 kPa, w2 = 0.05	1.82
333.2 K, 28400 kPa, w2 = 0.212	2.9
333.2 K, 28800 kPa, w2 = 0.05	1.83
333.2 K, 29900 kPa, w2 = 0.05	1.84
333.2 K, 30600 kPa, w2 = 0.212	2.94
333.3 K, 11800 kPa, w2 = 0.152	1.99
333.3 K, 11900 kPa, w2 = 0.1	1.74
333.3 K, 12900 kPa, w2 = 0.1	1.81
333.3 K, 12900 kPa, w2 = 0.152	2.07
333.3 K, 13700 kPa, w2 = 0.1	1.86
333.3 K, 13800 kPa, w2 = 0.152	2.11
333.3 K, 14800 kPa, w2 = 0.1	1.9
333.3 K, 14800 kPa, w2 = 0.152	2.16
333.3 K, 15700 kPa, w2 = 0.1	1.94
333.3 K, 15900 kPa, w2 = 0.152	2.2
333.3 K, 16700 kPa, w2 = 0.1	1.96
333.3 K, 16700 kPa, w2 = 0.152	2.22
333.3 K, 17700 kPa, w2 = 0.152	2.26
333.3 K, 17800 kPa, w2 = 0.1	2
333.3 K, 18500 kPa, w2 = 0.1	2.01
333.3 K, 18700 kPa, w2 = 0.152	2.28
333.3 K, 19400 kPa, w2 = 0.1	2.03
333.3 K, 19600 kPa, w2 = 0.1	2.03
333.3 K, 19700 kPa, w2 = 0.152	2.31
333.3 K, 20600 kPa, w2 = 0.1	2.06
333.3 K, 20800 kPa, w2 = 0.152	2.33
333.3 K, 21700 kPa, w2 = 0.1	2.08
333.3 K, 22000 kPa, w2 = 0.152	2.36
333.3 K, 22600 kPa, w2 = 0.1	2.09
333.3 K, 22700 kPa, w2 = 0.152	2.37
333.3 K, 23500 kPa, w2 = 0.152	2.38
333.3 K, 23900 kPa, w2 = 0.1	2.11
333.3 K, 24500 kPa, w2 = 0.152	2.4
333.3 K, 24800 kPa, w2 = 0.1	2.12
333.3 K, 25200 kPa, w2 = 0.1	2.13
333.3 K, 25600 kPa, w2 = 0.1	2.14 and 2.13
333.3 K, 25600 kPa, w2 = 0.152	2.42
333.3 K, 26500 kPa, w2 = 0.1	2.15
333.3 K, 26600 kPa, w2 = 0.1	2.15
333.3 K, 26600 kPa, w2 = 0.152	2.43
333.3 K, 27200 kPa, w2 = 0.1	2.16
333.3 K, 27500 kPa, w2 = 0.1	2.16
333.3 K, 27600 kPa, w2 = 0.152	2.45
333.3 K, 27900 kPa, w2 = 0.1	2.16
333.3 K, 28400 kPa, w2 = 0.152	2.46
333.3 K, 28500 kPa, w2 = 0.1	2.17
333.3 K, 29200 kPa, w2 = 0.1	2.18
333.3 K, 29200 kPa, w2 = 0.152	2.47
333.3 K, 29900 kPa, w2 = 0.152	2.48
